Patent US8691864B2, “Agents useful for reducing amyloid precursor protein and treating dementia and methods of use thereof” (priority 2000, dated 2014)

How the values were obtained:
SH-SY-5Y Cells = assay: MTS toxicity assay in SHSY5Y cells; format: cell-based, human
Experimental: (§1) An enzyme-linked immunosorbent assay was developed to detect secreted APP in SHSY5Y cells, a human neuroblastoma cell line. The purpose of the screen was to discover small molecules that inhibit APP protein synthesis in SHSY5Y cells. SHSY5Y cells were plated at 1×10^5 cells/well in […] of DMEM containing 0.5% heat inactivated FBS in 96 well tissue culture treated plates (Falcon no. 35 3072). 144 MES compounds were tested at final concentrations of […] in 0.1% DMSO. Compounds were added and the plates incubated for 16 hours at 37° C./5% CO2. Maxisorp plates (Nunc no. 437958) were coated overnight with […] capture antibody (Biosource 44-100) diluted in Ca^++ and Mg^++ free PBS. Biosource 44-100 is a mouse mAb that recognizes aa 1-100 of human APP. Plates were blocked for 30 minutes with 1 mg/mL BSA in Ca^++ and Mg^++ free PBS. Plates were washed 3× with wash buffer (Ca^++ and Mg^++ free PBS+0.01% Tween20). […] of supernatants and non-cultured medium controls were transferred from culture plates to ELISA plates. Culture plates were reserved for toxicity analysis. Supernatants were incubated for 4 hours at RT on a plate shaker. After supernatant incubation, plates were washed 3×. Primary antibody (Signet Clone 6E-10 biotin) was added at 0.3125 mg/mL and incubated overnight at 4° C. The recognition site of 6E-10 is aa 1-17 of Ab. For detection, a 1:3000 dilution of horseradish peroxidase conjugated streptavidin (Endogen no. N-100) was incubated for 30 minutes. Plates were washed 3×. Enzyme activity was assessed by incubation with […] TMB substrate solution (Moss no. TMB-US) for 20 minutes. The reaction was stopped by the addition of […] 0.18M sulfuric acid. Optical density was read at 450 nm on Wallac Victor2 plate reader. During the first incubation, toxicity was determined using MTS assay, Cell Titer96 AQ reagent (Promega no. G5430). The background values from the non-cultured medium control were subtracted from the sample values and secreted APP levels and toxicity were expressed as % vehicle control. Of the 144 MES compounds screened, 12 inhibited secreted APP as determined by ELISA. The results are depicted in FIGS. 13A-M.
(§2) Using the experimental procedure outlined above, APP secretion and toxicity studies were performed on several other non-carbamate compounds, and the results are shown in Tables 3 and 4. The compound structures are provided in Table 2 in the application, which are identified by their MES number.

secreted APP = assay: ELISA for secreted APP in SHSY5Y cells; format: cell-based, human; settings: 16 hours
Experimental: as §1, §2

Row | Compound | APP Toxicity SH-SY-5Y Cells (MTS assay) (SH-SY-5Y Cells; Dose 2 uM) [% vehicle control] | APP Toxicity SH-SY-5Y Cells (MTS assay) (SH-SY-5Y Cells; Dose 6 uM) [% vehicle control] | APP Toxicity SH-SY-5Y Cells (MTS assay) (SH-SY-5Y Cells; Dose 20 uM) [% vehicle control] | APP Secretion by SH-SY-5Y Cells (secreted APP; Dose 2 uM) [% vehicle control] | APP Secretion by SH-SY-5Y Cells (secreted APP; Dose 6 uM) [% vehicle control] | APP Secretion by SH-SY-5Y Cells (secreted APP; Dose 20 uM) [% vehicle control] | other results
1 | CN1CC[C@]2(C)c3cc(O)ccc3N(C)C12 (stereo partly drawn) [MES 9230] | 100.8 | 86.13 | 13.83 | 101.25 | 88.8 | 4.4 | 
2 | COc1ccc2c(c1)[C@]1(C)CCN(Cc3ccccc3)C1N2C (stereo partly drawn) [MES 9231] |  |  |  |  |  |  | APP Toxicity SH-SY-5Y Cells (MTS assay) (SH-SY-5Y Cells; Dose 2 uM, listed as 9231): 95.7 % vehicle control; APP Toxicity SH-SY-5Y Cells (MTS assay) (SH-SY-5Y Cells; Dose 6 uM, listed as 9231): 90.73 % vehicle control; APP Toxicity SH-SY-5Y Cells (MTS assay) (SH-SY-5Y Cells; Dose 20 uM, listed as 9231): 85.87 % vehicle control; APP Secretion by SH-SY-5Y Cells (secreted APP; Dose 2 uM, listed as 9231): 104.9 % vehicle control; APP Secretion by SH-SY-5Y Cells (secreted APP; Dose 6 uM, listed as 9231): 133.5 % vehicle control; APP Secretion by SH-SY-5Y Cells (secreted APP; Dose 20 uM, listed as 9231): 154.2 % vehicle control
3 | COc1ccc2c(c1)[C@@]1(C)CC[N+](C)(C)C1N2Cc1ccccc1.[I-] (stereo partly drawn) [MES 9234] | 102.55 | 99.75 | 99.3 | 106.4 | 96.5 | 98.8 | 
4 | COc1ccc2c(c1)[C@@](C)(CC[N+](C)(C)C)C(O)N2Cc1ccccc1.[I-] (stereo partly drawn) [MES 9236] | 97.6 | 101 | 100.05 | 105.8 | 103.2 | 101.65 | 
5 | COc1ccc2c(c1)[C@@]1(C)CCN(Cc3ccccc3)C1N2Cc1ccccc1 (stereo partly drawn) [MES 9237] | 96.55 | 98.35 | 99.4 | 149.95 | 158.1 | 173.3 | 
6 | C[C@]12CCN(Cc3ccccc3)C1N(Cc1ccccc1)c1ccc(O)cc12 (stereo partly drawn) [MES 9238] | 41.8 | 40.47 | 31.63 | 48.57 | 39.23 | 23.57 | APP Toxicity SH-SY-5Y Cells (MTS assay) (SH-SY-5Y Cells; Dose 0.08 uM): 101.8 % vehicle control; APP Toxicity SH-SY-5Y Cells (MTS assay) (SH-SY-5Y Cells; Dose 0.25 uM): 103.8 % vehicle control; APP Toxicity SH-SY-5Y Cells (MTS assay) (SH-SY-5Y Cells; Dose 0.74 uM): 106.4 % vehicle control; APP Secretion by SH-SY-5Y Cells (secreted APP; Dose 0.08 uM): 117.6 % vehicle control; APP Secretion by SH-SY-5Y Cells (secreted APP; Dose 0.25 uM): 107.7 % vehicle control; APP Secretion by SH-SY-5Y Cells (secreted APP; Dose 0.74 uM): 109.7 % vehicle control
7 | COc1ccc2c(c1)[C@]1(C)CCN(C)C1N2Cc1ccccc1 (stereo partly drawn) [MES 9242] | 94.2 | 89.8 | 80.95 | 116.75 | 116.3 | 116.1 | 
8 | COc1ccc2c(c1)[C@]1(C)CCNC1N2 (stereo partly drawn) [MES 9243] | 99.1 | 98.4 | 99 | 88.95 | 95.25 | 100.55 | 
9 | C=CCO[C@H](c1ccnc2ccccc12)C1CC2CC[N+]1(Cc1c3ccccc3cc3ccccc13)CC2C=C.[Br-] (stereo partly drawn) [MES 9257] | 100.5 | 98.77 | 100 | 111.2 | 98.9 | 99.03 | 
10 | CN(C)Cc1cc2c(cc1O)[C@]1(C)CCN(C)C1N2C (stereo partly drawn) [MES 9266] | 96.55 | 97.75 | 94.15 | 94.4 | 95.2 | 94.85 | 
11 | Cc1cc2c(cc1O)[C@]1(C)CCN(C)C1N2C (stereo partly drawn) [MES 9267] | 97.98 | 96.72 | 15.52 | 93.68 | 68.64 | 22.22 | APP Toxicity SH-SY-5Y Cells (MTS assay) (SH-SY-5Y Cells; Dose 0.08 uM): 101.5 % vehicle control; APP Toxicity SH-SY-5Y Cells (MTS assay) (SH-SY-5Y Cells; Dose 0.25 uM): 102 % vehicle control; APP Toxicity SH-SY-5Y Cells (MTS assay) (SH-SY-5Y Cells; Dose 0.74 uM): 101.9 % vehicle control; APP Secretion by SH-SY-5Y Cells (secreted APP; Dose 0.08 uM): 97.8 % vehicle control; APP Secretion by SH-SY-5Y Cells (secreted APP; Dose 0.25 uM): 97.43 % vehicle control; APP Secretion by SH-SY-5Y Cells (secreted APP; Dose 0.74 uM): 97.43 % vehicle control
12 | C/N=C(\C)c1cccc(OC)c1 [MES 9270] | 99.4 | 101.1 | 100.4 | 95.8 | 95.9 | 98.15 | 
13 | CNC(C)c1cccc(OC)c1 (stereo not drawn) [MES 9271, 3-Methoxy-(1′-N-methylamino)-ethyl-benzene] | 99 | 99.475 | 94.1 | 96.1 | 89.9 | 63.825 | APP Toxicity SH-SY-5Y Cells (MTS assay) (SH-SY-5Y Cells; Dose 0.08 uM): 103.55 % vehicle control; APP Toxicity SH-SY-5Y Cells (MTS assay) (SH-SY-5Y Cells; Dose 0.25 uM): 103.45 % vehicle control; APP Toxicity SH-SY-5Y Cells (MTS assay) (SH-SY-5Y Cells; Dose 0.74 uM): 103.1 % vehicle control; APP Secretion by SH-SY-5Y Cells (secreted APP; Dose 0.08 uM): 96.6 % vehicle control; APP Secretion by SH-SY-5Y Cells (secreted APP; Dose 0.25 uM): 87.95 % vehicle control; APP Secretion by SH-SY-5Y Cells (secreted APP; Dose 0.74 uM): 92.2 % vehicle control
14 | COc1ccc2c(c1)[C@]1(C)CCN(Cc3ccccc3)C1N2C (stereo partly drawn) [MES 9276] |  |  |  | 96.15 | 116.95 | 133.4 | APP Toxicity SH-SY-5Y Cells (MTS assay) (SH-SY-5Y Cells; Dose 2 uM, listed as 9276): 92.85 % vehicle control; APP Toxicity SH-SY-5Y Cells (MTS assay) (SH-SY-5Y Cells; Dose 6 uM, listed as 9276): 93.5 % vehicle control; APP Toxicity SH-SY-5Y Cells (MTS assay) (SH-SY-5Y Cells; Dose 20 uM, listed as 9276): 90.65 % vehicle control
15 | COc1ccc2c(c1)[C@]1(C)CCN(Cc3ccccc3)C1N2C=O (stereo partly drawn) [MES 9277] | 98.25 | 98.3 | 91.1 | 98.25 | 109 | 113.6 | 
